ChEMBL document CHEMBL1153933, “Selective inhibition of Pfmrk, a Plasmodium falciparum CDK, by antimalarial 1,3-diaryl-2-propenones” (Bioorg Med Chem Lett, 2009)

Legend:
Protein kinase Pfmrk = target: T1, Protein kinase Pfmrk (Plasmodium falciparum, UniProt P90584); assay: Inhibition of His6x-tagged Plasmodium falciparum Pfmrk expressed in Escherichia coli by microtiter plate scintillation counting
T1 sequence (P90584 whole entry): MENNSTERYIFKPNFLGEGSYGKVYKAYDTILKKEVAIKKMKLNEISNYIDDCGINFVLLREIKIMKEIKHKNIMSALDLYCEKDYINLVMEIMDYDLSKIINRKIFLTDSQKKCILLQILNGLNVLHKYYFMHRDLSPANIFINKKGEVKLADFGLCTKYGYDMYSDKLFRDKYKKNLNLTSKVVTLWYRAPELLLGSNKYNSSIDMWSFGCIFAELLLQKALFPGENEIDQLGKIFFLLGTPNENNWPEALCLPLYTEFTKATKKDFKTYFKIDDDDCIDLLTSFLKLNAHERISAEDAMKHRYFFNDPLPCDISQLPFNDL

[1] = Inhibition of His6x-tagged Plasmodium falciparum PfPK5 expressed in Escherichia coli by microtiter plate scintillation counting
Plasmodium falciparum [2] = assay: Antimalarial activity after 24 hrs against chloroquine-sensitive Plasmodium falciparum D6 by [3H]hypoxanthine uptake; format: functional, organism-based
Plasmodium falciparum [3] = assay: Antimalarial activity after 24 hrs against chloroquine-resistant Plasmodium falciparum W2 by [3H]hypoxanthine uptake; format: functional, organism-based

Structure (SMILES) | IC50 (Protein kinase Pfmrk) [µM] | IC50 [1] [µM] | IC50 (Plasmodium falciparum [2]) [µM] | IC50 (Plasmodium falciparum [3]) [µM]
COc1ccc(C(=O)/C=C/c2cccc3ccccc23)c(OC)c1 | 1.3 | > 100 | – | –
COc1ccc(C(=O)/C=C/c2cccc3ccccc23)c(OC)c1OC | 50 | > 100 | – | –
COc1ccc(C(=O)/C=C/c2cccc3ccccc23)cc1 | > 100 | > 100 | – | –
COc1ccc(C(=O)/C=C/c2cccnc2)c(OC)c1OC | 38 | > 100 | 3.2 | 3.9
O=C(/C=C/c1ccccc1)c1cccc([N+](=O)[O-])c1 | – | > 316 | > 19.8 | > 19.8
CCOC(=O)/C(=C\c1ccccn1)C(=O)c1cccc([N+](=O)[O-])c1 | 61 | 123 | – | –
O=C(/C=C/c1ccccn1)c1ccccc1 [WR-190433] | 22 | > 382 | – | –
O=C(/C=C/c1ccccn1)c1cccc([N+](=O)[O-])c1 | 18 | > 315 | 11 | > 19.7
C/C(=C\C(=O)c1cccc([N+](=O)[O-])c1)c1cccc([N+](=O)[O-])c1 | > 256 | > 256 | 8.3 | 8.2
COc1ccc(C(=O)/C=C/c2ccc3ccccc3c2)c(OC)c1 | 100 | – | – | –
COc1ccc(C(=O)/C=C/c2ccncc2)c(OC)c1OC | 9 | > 100 | 2.8 | 3.2
COc1ccc(C(=O)/C=C/c2ccccn2)cc1 | 12 | > 100 | 7.1 | 10.5
Cc1ccc(C(=O)/C=C/c2ccccc2)cc1 | 20 | > 360 | 11.7 | 11.5
CC(=O)Nc1ccc(C(=O)/C=C/c2ccccc2)cc1 | – | > 302 | 10.9 | 9.9
COc1ccc(C(=O)/C=C/c2ccncc2)cc1 | 8.2 | 100 | 12 | 12.2
COc1ccc(C(=O)/C=C/c2ccccn2)c(OC)c1OC | 34 | > 100 | 2.5 | 2.3
COc1ccc(C(=O)/C=C/c2ccc3ccccc3c2)c(OC)c1OC | 19 | > 100 | – | –
O=C(/C=C/c1ccc([N+](=O)[O-])cc1)c1cccc([N+](=O)[O-])c1 | 268 | > 268 | > 16.8 | > 16.8
N#Cc1ccc(C(=O)/C=C/c2ccc(Cl)cc2)cc1 | > 100 | > 299 | > 18.2 | 10.5
